These results are taken from patent publication US10143201B2, “Fungicidal compositions” (Syngenta Crop Protection LLC, priority 2007, dated 2018).

Format in all cases: cell-based
One assay concerns Pyrenophora teres. Kind of assay: Fungicidal action against Pyrenophora teres (net blotch), microtiter growth inhibition. Particulars: for inhibition at 0.125 ppm / inhibition at 0.5 ppm / inhibition at 1 ppm / inhibition at 0.0625 ppm: read-out: % activity; for inhibition at 0.5 ppm: 0.5000 ppm; for % activity: alone; for inhibition at 0.25 ppm: 0.2500 ppm. On the procedure:
Example B6: Fungicidal Action Against Pyrenophora teres (Net Blotch)
(§1) Conidia of the fungus from cryogenic storage are directly mixed into nutrient broth (PDB potato dextrose broth). After placing a (DMSO) solution of the test compounds into a microtiter plate (96-well format) the nutrient broth containing the fungal spores is added. The test plates are incubated at 24° C. and the inhibition of growth is evaluated after 4 days. The expected fungicidal action is calculated according to the Colby method.

Assay [1] has as its system Pseudocercosporella herpotrichoides (syn. Tapesia yallundae). Kind of assay: Fungicidal action against Pseudocercosporella herpotrichoides (eye spot of cereals), microtiter growth inhibition. On the procedure: Example B5: Funicidal Action Against Pseudocercosporella herpotrichoides (Syn. Tapesia yallundae), Eye Spot of Cereals
as §1

For a further assay, the system named is Botrytis cinerea. Kind of assay: Fungicidal action against Botrytis cinerea (gray mould), microtiter growth inhibition. As for the experimental part:
Example B2: Fungicidal Action Against Botrytis cinerea (Gray Mould)
as §1

In the next assay the test system is Alternaria solani. Kind of assay: Fungicidal action against Alternaria solani (early blight tomato/potato), microtiter growth inhibition. As for the experimental part: Example B4: Fungicidal Action Against Alternaria solani (Early Blight Tomato/Potato)
Conidia of the fungus from cryogenic storage are directly mixed into nutrient broth (PDB potato dextrose broth). After placing a (DMSO) solution of the test compounds into a microtiter plate (96-well format) the nutrient broth containing the fungal spores is added. The test plates are incubated at 24° C. and the inhibition of growth is evaluated after 3 days. The expected fungicidal action is calculated according to the Colby method.

A further assay deals with Septoria tritici. Kind of assay: Fungicidal action against Septoria tritici (leaf blotch), microtiter growth inhibition. As for the experimental part:
Example B3: Fungicidal Action Against Septoria tritici (Leaf Blotch)
as §1

A further assay deals with Gaeumannomyces graminis. Kind of assay: Fungicidal action against Gaeumannomyces graminis (take-all of cereals), microtiter growth inhibition. Particulars: Gaeumannomyces graminis, compound alone; for inhibition at 0.0039 ppm / inhibition at 0.0313 ppm / inhibition at 0.0625 ppm: read-out: % activity. As for the experimental part: Example B7: Fungicidal Action Against Gaeumannomyces graminis (Take-all of Cereals)
Mycelial fragments of the fungus from cryogenic storage are directly mixed into nutrient broth (PDB potato dextrose broth). After placing a (DMSO) solution of the test compounds into a microtiter plate (96-well format) the nutrient broth containing the fungal spores is added. The test plates are incubated at 24 C and the inhibition of growth is evaluated after 4 days.

The mark [2] stands for this setting: Pyrenophora teres, compound alone, 0.1250 ppm.
Setting [3] is: Pyrenophora teres, compound alone.
Setting [4] is: Oculimacula yallundae, 0.0156 ppm, alone, read-out: % activity.
Where [5] appears, read: Oculimacula yallundae, 0.1250 ppm, alone.
Where [6] appears, read: Oculimacula yallundae, 0.2500 ppm, alone, read-out: % activity.
[7] abbreviates: Zymoseptoria tritici, 0.0625 ppm, alone, read-out: % activity.
[8] abbreviates: Zymoseptoria tritici, 0.1250 ppm, alone, read-out: % activity.
[9] abbreviates: Oculimacula yallundae, 0.0313 ppm, alone.
Setting [10] is: Alternaria solani, 0.1250 ppm, alone.
Where [11] appears, read: Alternaria solani, 0.2500 ppm, alone, read-out: % activity.
The mark [12] stands for this setting: Alternaria solani, 0.5000 ppm, alone, read-out: % activity.
Where [13] appears, read: Pyrenophora teres, compound alone, 0.0625 ppm.
[14] abbreviates: Botrytis cinerea, read-out: % activity.
[15] abbreviates: Zymoseptoria tritici, read-out: % activity.
[16] abbreviates: Oculimacula yallundae, read-out: % activity.

Where two headings read alike, the source gives them in different places.

Regarding `Fc1ccc([C@]2(Cn3cncn3)O[C@H]2c2ccccc2Cl)cc1` (racemic) [Epoxiconazole, epoxiconazole], the values for the inhibition at 0.125 ppm (in the assay with Pyrenophora teres (setting [2]); in assay [1] (setting [5])) were 20% and 70%, respectively. Further, the inhibition at 0.5 ppm in the assay on Pyrenophora teres (setting [3]) came to 50%. The inhibition at 1 ppm in the assay with Pyrenophora teres (setting [3]) was 70%. Also, the inhibition at 0.0156 ppm in assay [1] (setting [4]) worked out at 0%. The inhibition at 0.25 ppm in assay [1] (setting [6]) came out at 90%.
Regarding `CO/C=C(/C(=O)OC)c1ccccc1Oc1cc(Oc2ccccc2C#N)ncn1` [Azoxystrobin, azoxystrobin], the “% activity” value worked out at 0% in the assay on Botrytis cinerea (0.1250 ppm, alone); 0% with Botrytis cinerea (0.2500 ppm, alone); 0% with Botrytis cinerea (0.5000 ppm, alone); 0% in the assay with Botrytis cinerea (1.0000 ppm, alone); 0% in the assay on Botrytis cinerea (2.0000 ppm, alone); 20% with Pyrenophora teres (0.0313 ppm). Further, the “% activity” value is listed as 50% with Pyrenophora teres (0.0625 ppm); 70% in the assay with Pyrenophora teres (0.1250 ppm); 20% in the assay with Alternaria solani (0.0156 ppm, alone); 20% in the assay on Alternaria solani (0.0313 ppm, alone); 20% with Alternaria solani (0.0625 ppm, alone); 50% in the assay on Alternaria solani (0.2500 ppm, alone). Also, the “% activity” value in the assay on Alternaria solani (0.5000 ppm, alone) was 50%; with Septoria tritici (0.0625 ppm, alone) it was 70%.
`N#Cc1c(Cl)c(Cl)c(Cl)c(C#N)c1Cl` [Chlorothalonil, chlorothalonil] returned an inhibition at 0.25 ppm in the assay with Pyrenophora teres (setting [3]) of 0%. Besides, the inhibition at 0.5 ppm in the assay on Pyrenophora teres (setting [3]) came to 20%. The inhibition at 0.0625 ppm in the assay with Septoria tritici (setting [7]) is 0%. Besides, the values for the inhibition at 0.125 ppm (in the assay with Septoria tritici (setting [8]); in assay [1] (setting [5])) were 0% and 90%, respectively. Moreover, the inhibition at 0.0156 ppm in assay [1] (setting [4]) turned out to be 0%. The molecule further showed an inhibition at 0.0313 ppm in assay [1] (setting [9]) of 50%.
In turn, `CC(C1CC1)C(O)(Cn1cncn1)c1ccc(Cl)cc1` (stereo not shown) [Cyproconazole, cyproconazole] returned an inhibition at 0.125 ppm with Alternaria solani (setting [10]) of 0%. In the assay on Alternaria solani (setting [11]), the inhibition at 0.25 ppm is 0%. In addition, the inhibition at 0.5 ppm in the assay with Alternaria solani (setting [12]) turned out to be 20%. Moreover, in the assay with Gaeumannomyces graminis, the inhibition at 0.0039 ppm was 0%, the inhibition at 0.0313 ppm was 0% and the inhibition at 0.0625 ppm was 20%. Also, the inhibition at 0.25 ppm in assay [1] (setting [6]) turned out to be 70%.
In the case of `Cc1cc(C2CC2)nc(Nc2ccccc2)n1` [Cyprodinil, cyprodinil], the inhibition at 0.0313 ppm in the assay on Pyrenophora teres (Pyrenophora teres, compound alone, 0.0313 ppm) is 20%; in assay [1] (setting [9]), 70%. In addition, the inhibition at 0.0625 ppm in the assay with Pyrenophora teres (setting [13]) was found to be 20%. The figures for the inhibition at 0.125 ppm in the assay on Pyrenophora teres (setting [2]) and with Septoria tritici (setting [8]) were 50% and 0%, respectively. The inhibition at 0.25 ppm came out at 50% in the assay with Pyrenophora teres (setting [3]); 50% with Alternaria solani (setting [11]); 0% in the assay with Septoria tritici (Zymoseptoria tritici, 0.2500 ppm, alone, read-out: % activity). Besides, the inhibition at 0.5 ppm in the assay with Septoria tritici (Zymoseptoria tritici, 0.5000 ppm, alone, read-out: % activity) stood at 0%. In the assay with Septoria tritici (Zymoseptoria tritici, 1.0000 ppm, alone), this molecule came in with an inhibition at 1 ppm of 0%. Also, in the assay with Septoria tritici (Zymoseptoria tritici, 2.0000 ppm, alone), the inhibition at 2 ppm amounted to 0%. In assay [1] (setting [4]), the inhibition at 0.0156 ppm stood at 20%.
For `CC1COC(Cn2cncn2)(c2ccc(Oc3ccc(Cl)cc3)cc2Cl)O1` (stereo not shown) [Difenoconazole, difenoconazole], in the assay on Pyrenophora teres (setting [13]), the inhibition at 0.0625 ppm was determined as 20%. Moreover, the inhibition at 0.125 ppm in the assay with Pyrenophora teres (setting [2]) is 50%. In the assay on Pyrenophora teres (setting [3]), the inhibition at 0.25 ppm amounted to 50%, the inhibition at 0.5 ppm was determined as 70% and the inhibition at 1 ppm stood at 70%. The molecule further displayed an inhibition at 0.0313 ppm with Septoria tritici (Zymoseptoria tritici, 0.0313 ppm, alone) of 50%. The inhibition at 0.0625 ppm in the assay on Septoria tritici (setting [7]) worked out at 90%. Moreover, in the assay with Gaeumannomyces graminis, the inhibition at 0.0039 ppm was 0%, the inhibition at 0.0313 ppm stood at 0% and the inhibition at 0.0625 ppm came to 0%. The inhibition at 0.0156 ppm with Gaeumannomyces graminis (0.0156 ppm) is 0%. In assay [1] (setting [5]), this molecule returned an inhibition at 0.125 ppm of 50%.
Turning to `CC(Cc1ccc(C(C)(C)C)cc1)CN1CCCCC1` (stereo not shown) [Fenpropidin, fenpropidin], the inhibition at 0.5 ppm in the assay on Botrytis cinerea (Botrytis cinerea, 0.5000 ppm, alone) came to 0%; in the assay on Pyrenophora teres (setting [3]) it was 0%; in the assay on Alternaria solani (setting [12]), 0%. The inhibition at 1 ppm in the assay with Botrytis cinerea (Botrytis cinerea, 1.0000 ppm, alone) was 0%; in the assay on Alternaria solani (Alternaria solani, 1.0000 ppm, alone), 0%. In addition, the inhibition at 2 ppm with Botrytis cinerea (Botrytis cinerea, 2.0000 ppm, alone) was 0%; with Pyrenophora teres (Pyrenophora teres, compound alone, 2.0000 ppm), 0%. Further, the inhibition at 0.0625 ppm in the assay with Pyrenophora teres (setting [13]) is 0%; in assay [1] (Oculimacula yallundae, 0.0625 ppm, alone), 0%. The inhibition at 0.125 ppm (in the assay with Pyrenophora teres (setting [2]); with Alternaria solani (setting [10]); in assay [1] (setting [5])) was 0% in each case. Besides, the inhibition at 0.25 ppm (in the assay with Pyrenophora teres (setting [3]); in the assay on Alternaria solani (setting [11]); in assay [1] (setting [6])) was 0% each time. In assay [1] (setting [4]), the inhibition at 0.0156 ppm turned out to be 0%. Further, the inhibition at 0.0313 ppm in assay [1] (setting [9]) was 0%.
Take `N#Cc1c[nH]cc1-c1cccc2c1OC(F)(F)O2` [Fludioxonil, fludioxonil]: the inhibition at 0.0313 ppm in the assay with Botrytis cinerea (setting [14]) was 0%; in the assay with Alternaria solani (Alternaria solani, read-out: % activity, 0.0313 ppm, alone), 0%. The inhibition at 0.0625 ppm in the assay with Botrytis cinerea (setting [14]) worked out at 20%; in the assay on Pyrenophora teres (Pyrenophora teres), 20%; in the assay with Alternaria solani (Alternaria solani, read-out: % activity, 0.0625 ppm, alone), 20%; in the assay on Septoria tritici (setting [15]), 0%. In addition, the inhibition at 0.125 ppm in the assay on Botrytis cinerea (setting [14]) was determined as 90%; in the assay on Pyrenophora teres (Pyrenophora teres) it was 70%; with Septoria tritici (setting [15]), 0%. Also, the inhibition at 0.0078 ppm came to 0% in the assay on Alternaria solani (Alternaria solani, read-out: % activity, 0.0078 ppm, alone) and 0% in assay [1] (setting [16]). Also, the inhibition at 0.0156 ppm with Alternaria solani (Alternaria solani, read-out: % activity, 0.0156 ppm, alone) stood at 0%; in assay [1] (setting [16]), 0%. In addition, the inhibition at 0.25 ppm with Alternaria solani (Alternaria solani, read-out: % activity, 0.2500 ppm, alone) is 50%; in assay [1] (setting [16]) it was 20%. The inhibition at 0.5 ppm in the assay on Alternaria solani (Alternaria solani, read-out: % activity, 0.5000 ppm, alone) turned out to be 70%; in assay [1] (setting [16]), 20%. Besides, in assay [1] (setting [16]), the inhibition at 1 ppm worked out at 20%. The inhibition at 2 ppm in assay [1] (setting [16]) was 20%.
For the molecule `CO/C=C(/C(=O)OC)c1ccccc1COc1cccc(C(F)(F)F)n1` [Picoxystrobin, picoxystrobin], the “% activity” value in the assay on Botrytis cinerea (0.0625 ppm, alone) came to 0%; in the assay with Botrytis cinerea (0.1250 ppm, alone), 0%; in the assay on Botrytis cinerea (0.2500 ppm, alone), 0%; with Botrytis cinerea (0.5000 ppm, alone) it was 0%; with Botrytis cinerea (1.0000 ppm, alone), 0%; in the assay on Botrytis cinerea (2.0000 ppm, alone), 0%. The “% activity” value with Pyrenophora teres (0.0313 ppm) was found to be 50%; in the assay on Pyrenophora teres (0.0625 ppm), 70%; with Alternaria solani (0.0078 ppm, alone), 0%; with Alternaria solani (0.0156 ppm, alone), 20%; in the assay on Alternaria solani (0.0313 ppm, alone) it was 20%; with Alternaria solani (0.0625 ppm, alone), 50%. Moreover, the “% activity” value came out at 50% with Alternaria solani (0.1250 ppm, alone); 50% in the assay on Alternaria solani (0.2500 ppm, alone); 50% in the assay on Alternaria solani (0.5000 ppm, alone); 50% in the assay with Alternaria solani (2.0000 ppm, alone); 20% in the assay with Septoria tritici (0.0156 ppm, alone); 70% with Septoria tritici (0.0313 ppm, alone). Also, the “% activity” value in assay [1] (0.0078 ppm, alone) was 0%; in assay [1] (0.0156 ppm, alone), 20%; in assay [1] (0.0313 ppm, alone), 50%; in assay [1] (0.0625 ppm, alone), 50%; in assay [1] (0.1250 ppm, alone) it was 50%; in assay [1] (0.2500 ppm, alone), 50%. The “% activity” value stood at 50% in assay [1] (0.5000 ppm, alone) and 70% in assay [1] (1.0000 ppm, alone).
`CC(C)(C)C(O)(CCc1ccc(Cl)cc1)Cn1cncn1` (stereo not shown) [Tebuconazole]: in the assay with Gaeumannomyces graminis (0.1250 ppm), the inhibition at 0.125 ppm came to 50%.
